Measurements reported in patent US20130040952A1 (priority 2011, published 2013).
Where a SMILES comes first, the peptide text is derived from it. Bridges are numbered along the chain shown (N, C = ends).

What was measured:
WSN virus = assay: microbe, parasite or virus in culture; details: unidentified influenza virus, MDCK, 48 h, read-out: IC50 (μM), antiinfluenza
NP WT trimer = NP WT trimer (Influenza A virus, UniProt P15682); assay type: binding, influenza A virus (WSN)
[1] = Cytotoxicity assay in MDCK cells (MTS); assay type: cell-based; details: dog; concentration needed to inhibit 50% growth of MDCK cells in 48 h
Experimental: In a 96-well plate, 1×10^4 MDCK cells were seeded per well and incubated for 24 h at 37° C. The MDCK cells were then incubated with compounds for 48 h at 35° C. The number of metabolically viable cells was determined by the MTS assay (Promega).

rWSN virus (parental) = assay: microbe, parasite or virus in culture; assay type: cell-based; details: unidentified influenza virus, MDCK, 48 h, read-out: Anti-rWSN IC50 (μM), parental
[2] = tested on: RDRP activity of WSN virus; assay type: biochemical, Influenza virus A/WSN/33 (H1N1)

Sequence of NP WT trimer (P15682 whole entry, looked up): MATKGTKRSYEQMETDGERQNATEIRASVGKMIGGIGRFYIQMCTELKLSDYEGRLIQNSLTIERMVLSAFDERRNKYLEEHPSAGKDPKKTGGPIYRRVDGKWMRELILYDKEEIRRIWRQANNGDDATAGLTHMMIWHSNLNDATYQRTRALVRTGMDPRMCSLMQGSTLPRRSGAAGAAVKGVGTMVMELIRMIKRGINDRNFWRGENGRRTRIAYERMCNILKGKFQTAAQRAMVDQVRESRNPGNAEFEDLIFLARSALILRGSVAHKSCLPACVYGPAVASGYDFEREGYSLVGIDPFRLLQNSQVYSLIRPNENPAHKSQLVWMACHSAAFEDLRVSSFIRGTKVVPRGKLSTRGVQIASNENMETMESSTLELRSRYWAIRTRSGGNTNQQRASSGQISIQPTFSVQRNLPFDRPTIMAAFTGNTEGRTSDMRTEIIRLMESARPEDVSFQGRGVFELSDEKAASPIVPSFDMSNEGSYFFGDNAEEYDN

Row | Compound | IC50 (WSN virus) [µM] | effect of compounds on NP WT trimer (AUC) (NP WT trimer) | CC50 at 48 h [1] [µM] | IC50 (rWSN virus (parental)) [µM] | inhibition of viral transcription activity [2] | effect of peptides on WT NP trimerization (AUC) (NP WT trimer)
1 | O=C(NCCCN1CCOCC1)c1csc(Nc2ccc(Cl)c(Cl)c2)n1 [compound 1] | 2.7 | able to disrupt NP trimerization and induce formation of NP monomers | 35.6 | 1.7 |  | 
2 | CCCCCCCCC(=O)NCC(=O)Nc1cccc(F)c1 [compound 2] | 37.5 | able to disrupt NP trimerization and induce formation of NP monomers | > 100 |  |  | 
3 | CCCCCC(=O)NCC(=O)Nc1cc(Cl)ccc1Cl [compound 3] | 118 | able to disrupt NP trimerization and induce formation of NP monomers | > 100 |  |  | 
4 | Cc1cccc(CSc2nc(=O)n(CCCO)c3c2CCC3)c1 [compound 4] | 39.7 | able to disrupt NP trimerization and induce formation of NP monomers | > 100 |  |  | 
5 | Cc1onc(-c2ccccc2)c1C(=O)N1CCN(c2ccc([N+](=O)[O-])cc2Cl)CC1 [nucleozin, reference compound] |  | caused aggregation of the NP trimer |  |  |  | 
6 | CC(C)[C@@H]1NC(=O)[C@H](CO)NC(=O)[C@H](Cc2ccccc2)NC(=O)[C@H]([C@@H](C)O)NC(=O)[C@@H](N)CSSC[C@@H](C(=O)O)NC(=O)[C@H](CC(N)=O)NC(=O)[C@H](CCCNC(=N)N)NC(=O)[C@H](CCC(N)=O)NC1=O [peptide 2] |  |  | > 2000 |  | reduce the viral transcription activity | the effect was substantially enhanced
7 | CC(C)C[C@@H]1NC(=O)[C@H](CC(N)=O)NC(=O)[C@H](CCCNC(=N)N)NC(=O)[C@H](CCC(N)=O)NC(=O)[C@H](C(C)C)NC(=O)[C@H](CO)NC(=O)[C@H](Cc2ccccc2)NC(=O)[C@H]([C@@H](C)O)NC(=O)[C@@H]2CCCN2C(=O)[C@H](CCC(N)=O)NC(=O)[C@@H](N)CSSC[C@@H](C(=O)O)NC1=O [peptide 3] (H-CQPTFSVQRNLC-OH; disulfide 1-12) |  |  | > 2000 |  | reduce the viral transcription activity | showed a slightly greater effect
8 | TFDSVQRN [peptide 1] |  |  |  |  |  | disrupted WT NP trimerization only slightly
